Laboratory results published in paper PMC6149824, “Design and Synthesis of New Benzothiazole Compounds as Selective hMAO-B Inhibitors” (Molecules : A Journal of Synthetic Chemistry and Natural …, 2017).
Entries after “also recorded” stand apart in the source; their conditions may differ.

Tests used:
hMAO-B [1] = molecular target: T1, hMAO-B (Homo sapiens, UniProt P27338); test: in vitro fluorometric hMAO-B inhibition assay (Amplex Red); format: biochemical
T1 sequence (P27338 1-520): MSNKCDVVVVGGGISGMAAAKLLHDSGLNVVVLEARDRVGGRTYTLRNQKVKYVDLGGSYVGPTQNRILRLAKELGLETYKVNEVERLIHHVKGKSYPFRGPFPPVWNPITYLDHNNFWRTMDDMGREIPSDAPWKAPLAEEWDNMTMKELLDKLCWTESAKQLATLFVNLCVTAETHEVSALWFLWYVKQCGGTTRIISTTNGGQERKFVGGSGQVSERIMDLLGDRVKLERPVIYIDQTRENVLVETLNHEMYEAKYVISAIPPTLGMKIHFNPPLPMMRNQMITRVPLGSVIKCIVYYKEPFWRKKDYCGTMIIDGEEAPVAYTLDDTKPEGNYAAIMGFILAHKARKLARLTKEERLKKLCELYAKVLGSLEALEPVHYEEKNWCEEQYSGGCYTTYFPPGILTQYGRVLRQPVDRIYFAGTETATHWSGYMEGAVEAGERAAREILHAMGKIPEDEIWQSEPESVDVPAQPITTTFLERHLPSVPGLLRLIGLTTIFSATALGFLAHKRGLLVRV
Method: The method was performed in two steps, as previously described.
An enzyme inhibition assay was performed according to our recent study. […] After the incubation period, the reaction was started by adding a working solution (100 μL/well) ([…] Amplex Red reagent, 1 U/mL horseradish peroxidase and 1 mM p-tyramine) and all pipetting processes were performed using a Biotek Precision XS robotic system (BioTek Instruments, Winooski, VT, USA).
Control experiments were carried out simultaneously by replacing the inhibitor solution with 2% DMSO (20 μL). In order to check the probable inhibitory effect of inhibitors on horseradish peroxidase, a parallel reading was achieved by replacing enzyme solutions with 3% H2O2 solution (20 mM 100 μL/well). In addition, the probable capacity of the inhibitors to modify the fluorescence generated in the reaction mixture due to non-enzymatic inhibition was determined by mixing inhibitor and working solutions.
The specific fluorescence emission (used to obtain the final results) was calculated after subtraction of the background activity, which was determined from vials containing all components except the hMAO isoforms, which were replaced by phosphate buffer (100 μL/well). Blank, control and all concentrations of inhibitors were analyzed in quadruplicate and inhibition percent was calculated by using following equation: % Inhibition=(FCt2−FCt1)−(FIt2−FIt1)/FCt2−FCt1×100 where FCt2 is the fluorescence of a control well measured at t2 time; FCt1 is the fluorescence of a control well measured at t1 time; FIt2 is the fluorescence of an inhibitor well measured at t2 time; and FIt1 is the fluorescence of an inhibitor well measured at t1 time.
The IC50 values were calculated from a dose-response curve obtained by plotting the percentage inhibition versus the log concentration with the use of GraphPad PRISM software (version 5.0, GraphPad Software Inc., La Jolla, CA, USA).

hMAO-B [2] = molecular target: T1, hMAO-B; test: enzyme kinetic studies (Lineweaver-Burk) of hMAO-B inhibition; format: biochemical
Method: The mechanism of hMAO-B inhibition was investigated by enzyme kinetic studies. Lineweaver-Burk graphs were used to estimate the type of inhibition. […] The velocity measurements were performed by using different substrate concentrations (20 µM–0.625 µM). The Ki (intercept on the x-axis) value of compound 3e was determined from the secondary plot of the 1/V versus varying concentrations.
The Lineweaver-Burk graphics present the inhibition type as a mixed-type, competitive, uncompetitive, or non-competitive. In the mix-typed inhibition, the control and inhibitor lines cross neither x- nor y-axis at the same point. […] There is no crosses between the lines in uncompetitive-type inhibition. […] Thus, it can be declared that the mechanism of hMAO-B inhibition of 3e is non-competitive, clarifying that the inhibitor can bind to either free enzyme or enzyme–substrate complex.
The same materials were used in the MAO inhibition assay. […] The solutions of inhibitor (20 μL/well) and enzyme added to the fine black-bottom 96-well microtiter plate and then the mixture was incubated at 37 °C for 30 min. After incubation period, the working solution, including various concentrations (20, 10, 5, 2.5, 1.25, and 0.625 μM) of tyramine (100 μL/well), was added. The increase of the fluorescence (Ex/Em = 535/587 nm) was recorded for 30 min. A parallel experiment was performed without using an inhibitor. All processes were assayed in quadruplicate. Lineweaver-Burk plots were obtained by using Microsoft Office Excel 2013 to analyze the inhibition type. The slopes of the Lineweaver-Burk plots were replotted versus the inhibitor concentration, and the Ki values were determined from the x-axis intercept as −Ki.

[3] = cytotoxicity test (MTT) on NIH/3T3 cells; format: cell-based, mouse; settings: mouse, NIH/3T3 mouse embryonic fibroblast cells (ATCC CRL-1658); MTT assay, 1000 µM to 0.316 µM; read-out: IC50 (cytotoxic activity against NIH/3T3 cell line)
Method: (§1) The healthy NIH/3T3 mouse embryonic fibroblast cell line (ATCC CRL1658), proposed by ISO (10993-5, 2009) for preliminary cytotoxicity screening of drug candidates, was used to evaluate the cytotoxicity of compound 3e. The IC50 value of the compound 3e is represented in Table 3.
(§2) NIH/3T3 mouse embryonic fibroblast cell line (ATCC® CRL-1658™, London, UK) was used in the cytotoxicity test and, initially, NIH/3T3 cells were incubated in Dulbecco’s Modified Eagle’s Medium (DMEM). NIH/3T3 cells were added to 96-well culture plates (10,000 cells/well). Synthesized compounds and reference agents were added to the 96-well culture plates at various concentrations ranging from 1000 µM to 0.316 µM. MTT assay was performed as previously described. Dose-response curves were plotted against compound concentrations applied to determine IC50 values.

[4] = system: NIH/3T3 mouse embryonic fibroblast cell line; test: cytotoxicity test (MTT) on NIH/3T3 cells; format: cell-based
Method: as §1, §2

With `COc1ccc2sc(SCC(=O)NN=Cc3ccc([N+](=O)[O-])s3)nc2c1` [Compound 3e, 2-((5-Methoxybenzothiazol-2-yl)thio)-N′-((5-nitrothiophen-2-yl)methylene)acetohydrazide] the inhibition at 1000 µM (hMAO-B [1]; 10^−3 M, read-out: MAO B Inhibition %) was 87.3%, the “inhibition against hMAO-B (first screening step)” value (hMAO-B [1]; 10^−3 and 10^−4 M) was “more than 50%” and the inhibition at 100 µM (hMAO-B [1]; 10^−4 M, read-out: MAO B Inhibition %) was 83.5%. The IC50 (hMAO-B [1]; concentrations of 10^−5–10^−9 M, mean ± SD, read-out: MAO B IC50) was 60 ± 2 nM, the “mechanism (type) of hMAO-B inhibition” value (hMAO-B [2]; Lineweaver-Burk plots) was “non-competitive” and the Vmax (hMAO-B [2]; inhibitor concentration 2 × IC50) was 158.730 nmol/min/mg protein. For the same compound, the Vmax (hMAO-B [2]; inhibitor concentration IC50) was 212.766 nmol/min/mg protein, the Vmax (hMAO-B [2]; inhibitor concentration IC50/2) was 263.158 nmol/min/mg protein and the Ki (hMAO-B [2]; secondary plot, x-axis intercept, substrate tyramine, read-out: Ki (steady-state inhibition constant) for the inhibition of hMAO-B) was 61 nM. The IC50 [3] was 19000 ± 1030 nM, the “fold IC50 against NIH/3T3 higher than IC50 against hMAO-B” value ([4]; IC50 NIH/3T3 vs IC50 hMAO-B) was “ca. 300 fold” and the “cytotoxicity (in words)” value ([4]; NIH/3T3, at its effective concentration) was “not cytotoxic; also recorded: non-cytotoxic”.
